Results published in publication PMC7997453 (Pharmaceuticals, 2021).
Like-named read-outs stand apart in the source and are kept apart here.

Key:
[1] = test system: Caco-2 cell line; conditions: cited from earlier work; for Papp,caco-2,(pH 7.4:7.4): ref supplement 7
[2] = cited from earlier work
[3] = test system: CYP3A4; design: method as in earlier work; conditions: ref 3 (supplement ref 8), cited from earlier work; for Km: unbound Michaelis constant
[4] = test system: CYP3A5; conditions: cited from earlier work; for Km: unbound Michaelis constant
[5] = ref supplement 4; cited from earlier work
[6] = design: method as in supplement 6; conditions: ref supplement 6; cited from earlier work
[7] = cited from earlier work; remark: listed apart in the source
[8] = design: method as in supplement 4; conditions: ref supplement 4; cited from earlier work
[9] = design: method as in supplement 5; conditions: ref supplement 5; cited from earlier work
[10] = design: method as in PMID 12676880; conditions: cited from earlier work
[11] = target: T1, CYP3A4 (Homo sapiens, UniProt P08684); assay: Time-dependent inhibition (TDI) assay, testosterone-6β-hydroxylation, CYP3A5*3/*3 HLM; type: biochemical
T1 sequence (P08684 whole entry): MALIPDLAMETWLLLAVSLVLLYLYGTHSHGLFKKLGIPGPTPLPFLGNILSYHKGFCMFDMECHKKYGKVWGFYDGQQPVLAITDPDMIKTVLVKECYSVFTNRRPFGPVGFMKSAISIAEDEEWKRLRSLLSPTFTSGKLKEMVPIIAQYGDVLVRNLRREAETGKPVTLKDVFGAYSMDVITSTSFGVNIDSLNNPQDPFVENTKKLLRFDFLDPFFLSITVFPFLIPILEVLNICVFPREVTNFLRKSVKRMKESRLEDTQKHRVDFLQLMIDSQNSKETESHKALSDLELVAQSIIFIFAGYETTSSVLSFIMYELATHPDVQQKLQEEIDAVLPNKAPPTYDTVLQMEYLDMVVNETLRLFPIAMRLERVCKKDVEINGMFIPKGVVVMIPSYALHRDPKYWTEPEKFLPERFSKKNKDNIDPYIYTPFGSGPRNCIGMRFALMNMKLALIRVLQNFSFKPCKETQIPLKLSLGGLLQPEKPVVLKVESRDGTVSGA
Procedure: (§1) Testosterone-6β-hydroxylation was used to measure the activity of CYP3A4 and CYP3A5. […] With the corresponding double-reciprocal plot, the derived kinetic constants from the inactivation experiments were estimated.
(§2) Two-step incubation was performed to evaluate the TDI assay. […] After pre-incubation for 3 min at 37 °C in a shaking water bath, the enzymatic reaction was started upon adding NADPH (1 mM) with various pre-reaction time (0, 5, 10, 20, 30 min). For TDI on CYP3A5, NADPH (1 mM) was added to the incubation which contained CYP3A5*1/*3 HLM (0.5 mg/mL) and CYP3cide (1.2 μM) after being pre-warmed for 3 min. […] Next step, an aliquot (20 μL) of the primary pre-reaction mixture was transferred to 180 μL of the secondary incubation system which consisted of PBS (0.1 M), testosterone (200 μM) and NADPH (1 mM). The secondary reaction was incubated at 37 °C for 10 min and terminated by adding 400 μL ice-cold acetonitrile containing prednisolone as the internal standard (0.3150 μM for CYP3A5*3/*3 HLM incubation and 0.07875 μM for CYP3A5*1/*3 HLM incubation). […] The observed inactivation rate of the affected enzyme (kobs) was the negative slope of the linear regression. kinact and KI were calculated using Equation (1) by the double-reciprocal plot. I represents the concentration of the inhibitor. (1) kobs=kinact×I/[…]

[12] = target: T2, CYP3A5 (Homo sapiens, UniProt P20815); assay: Time-dependent inhibition (TDI) assay, testosterone-6β-hydroxylation, CYP3A5*1/*3 HLM with CYP3cide; type: biochemical
T2 sequence (P20815 whole entry): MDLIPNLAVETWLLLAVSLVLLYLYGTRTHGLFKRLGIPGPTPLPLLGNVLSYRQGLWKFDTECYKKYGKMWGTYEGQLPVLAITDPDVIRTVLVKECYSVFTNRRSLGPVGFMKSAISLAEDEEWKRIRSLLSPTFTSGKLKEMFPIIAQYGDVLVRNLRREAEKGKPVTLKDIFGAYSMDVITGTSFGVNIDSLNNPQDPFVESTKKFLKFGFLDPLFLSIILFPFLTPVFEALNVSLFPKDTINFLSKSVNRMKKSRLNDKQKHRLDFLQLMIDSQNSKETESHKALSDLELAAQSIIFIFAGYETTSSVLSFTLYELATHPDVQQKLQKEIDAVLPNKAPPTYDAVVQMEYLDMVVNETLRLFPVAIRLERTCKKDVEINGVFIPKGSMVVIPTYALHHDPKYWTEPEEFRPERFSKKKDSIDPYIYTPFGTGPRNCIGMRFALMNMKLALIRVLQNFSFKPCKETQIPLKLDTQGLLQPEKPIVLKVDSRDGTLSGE
Procedure: as §1, §2

[13] = octanol/water partition coefficient; type: physicochemical; conditions: In-house data
[14] = intrinsic clearance in human liver microsomes; type: in vitro ADME; conditions: In-house data, read-out: CLint,HLM
[15] = test system: CYP3A; design: method as in PMID 15342469; conditions: cited from earlier work
[16] = target: T1, CYP3A4; assay: Reversible inhibition (RI) assay on tacrolimus metabolism, CYP3A5*3/*3 HLM
Procedure: (§3) The reactions were started with the addition of nicotinamide adenine dinucleotide phosphate (NADPH, 1 mM) and stopped 10 min later upon adding a double volume of ice-cold methanol. […] Reactions were terminated with the same method as the CYP3A4 group. All incubations were carried out in triplicate. […] Dixon plots were used to analyze the inhibitory type of RI assay and Ki value.

[17] = target: T2, CYP3A5; assay: Reversible inhibition (RI) assay on tacrolimus metabolism, CYP3A5*1/*3 HLM with CYP3cide
Procedure: as §3

[18] = single oral dose 1 mg, CYP3A5 expressers
[19] = single oral dose 1 mg, CYP3A5 non-expressers
[20] = single oral dose 2 mg, CYP3A5 expressers
[21] = single oral dose 2 mg, CYP3A5 non-expressers
[22] = single oral dose 5 mg, CYP3A5 expressers
[23] = single oral dose 5 mg, CYP3A5 non-expressers
[24] = 0.125 μM STA, 0.2 μM tacrolimus
[25] = 0.125 μM STA, 0.4 μM tacrolimus
[26] = 0.125 μM STA, 0.8 μM tacrolimus
[27] = 0.125 μM STA, 1.6 μM tacrolimus

Cc1ncc2n1-c1ccc(Cl)cc1C(c1ccccc1F)=NC2 [midazolam]
Papp,caco-2,(pH 7.4:7.4) [1]: 32.4 ×10-6cm/s

C=CC[C@@H]1/C=C(\C)C[C@H](C)C[C@H](OC)[C@H]2O[C@@](O)(C(=O)C(=O)N3CCCC[C@H]3C(=O)O[C@H](/C(C)=C/[C@@H]3CC[C@@H](O)[C@H](OC)C3)[C@H](C)[C@@H](O)CC1=O)[C@H](C)C[C@@H]2OC [tacrolimus]
AUC Obs (Observed) [2, 18]: 19.34 ng·h/mL | Cmax Obs (Observed) [2, 18]: 3.88 ng/mL | Tmax Obs (Observed) [2, 18]: 1.75 h | AUC Obs (Observed) [2, 19]: 30.34 ng·h/mL | Cmax Obs (Observed) [2, 19]: 5.52 ng/mL | Tmax Obs (Observed) [2, 19]: 1.5 h | AUC Obs (Observed) [2, 20]: 60.83 ng·h/mL | Cmax Obs (Observed) [2, 20]: 14.09 ng/mL | Tmax Obs (Observed) [2, 20]: 1.26 h | AUC Obs (Observed) [2, 21]: 119.02 ng·h/mL | Cmax Obs (Observed) [2, 21]: 24.28 ng/mL | Tmax Obs (Observed) [2, 21]: 1.35 h | AUC Obs (Observed) [2, 22]: 90.40 ng·h/mL | Cmax Obs (Observed) [2, 22]: 20.8 ng/mL | Tmax Obs (Observed) [2, 22]: 1.40 h | AUC Obs (Observed) [2, 23]: 134.77 ng·h/mL | Cmax Obs (Observed) [2, 23]: 27.90 ng/mL | Tmax Obs (Observed) [2, 23]: 1.30 h | CYP3A4 12-HT Vmax ([3]; 12-hydroxy tacrolimus formation): 0.6 pmol/min/pmol | CYP3A4 13-DMT Vmax ([3]; 13-O-desmethyl tacrolimus formation): 8 pmol/min/pmol | Km ([3]; read-out: CYP3A4 12-HT Km,u): 0.29 µM | Km ([3]; read-out: CYP3A4 13-DMT Km,u): 0.21 µM | CYP3A5 12-HT Vmax ([4]; 12-hydroxy tacrolimus formation, ref 3 (supplement ref 8)): 1.4 pmol/min/pmol | CYP3A5 13-DMT Vmax ([4]; 13-O-desmethyl tacrolimus formation, ref 3 (supplement ref 8)): 17 pmol/min/pmol | intrinsic clearance of tacrolimus by CYP3A5 versus CYP3A4 ([4]; in vitro): more than two-fold faster | Km ([4]; ref 3 (supplement ref 8), read-out: CYP3A5 12-HT Km,u): 0.35 µM | Km ([4]; ref 3 (supplement ref 8), read-out: CYP3A5 13-DMT Km,u): 0.21 µM | LogPo:w [5]: 3.26 | Intrinsic solubility [6]: 12 µg/mL | fu plasma ([7]; ref supplement 4): 0.013 | B/P [8]: 35 | fu gut [9]: 1 | Papp,caco-2,(pH 7.4:7.4) [1]: 13.1 ×10-6cm/s

CC(=O)N1CCN(c2ccc(OCC3COC(Cn4ccnc4)(c4ccc(Cl)cc4Cl)O3)cc2)CC1 (centres unmarked) [ketoconazole]
inhibition (tacrolimus level), CYP3A5 non-expressers versus expressers [10]: more significant inhibition

COc1cc2c(c(OC)c1OC)-c1c(cc3c(c1OC)OCO3)CC(C)C(C)(O)C2OC(=O)c1ccccc1 (centres unmarked) [STA, schisantherin A]
TDI profile on CYP3A4 (in words) [11]: potent TDI | log of percentage of control activity, Figure 3A, Mean ([11]; 0.25 μM STA, pre-incubation 0 min): 4.6010 | log of percentage of control activity, Figure 3A, Mean ([11]; 0.25 μM STA, pre-incubation 5 min): 4.4164 | log of percentage of control activity, Figure 3A, Mean ([11]; 0.25 μM STA, pre-incubation 10 min): 4.3386 | log of percentage of control activity, Figure 3A, Mean ([11]; 0.25 μM STA, pre-incubation 20 min): 4.2986 | log of percentage of control activity, Figure 3A, Mean ([11]; 0.25 μM STA, pre-incubation 30 min): 4.2407 | log of percentage of control activity, Figure 3A, Mean ([11]; 0.5 μM STA, pre-incubation 0 min): 4.6010 | log of percentage of control activity, Figure 3A, Mean ([11]; 0.5 μM STA, pre-incubation 5 min): 4.2393 | log of percentage of control activity, Figure 3A, Mean ([11]; 0.5 μM STA, pre-incubation 10 min): 4.0778 | log of percentage of control activity, Figure 3A, Mean ([11]; 0.5 μM STA, pre-incubation 20 min): 3.9359 | log of percentage of control activity, Figure 3A, Mean ([11]; 0.5 μM STA, pre-incubation 30 min): 3.9183 | log of percentage of control activity, Figure 3A, Mean ([11]; 1 μM STA, pre-incubation 0 min): 4.5902 | log of percentage of control activity, Figure 3A, Mean ([11]; 1 μM STA, pre-incubation 5 min): 4.1658 | log of percentage of control activity, Figure 3A, Mean ([11]; 1 μM STA, pre-incubation 10 min): 4.0515 | log of percentage of control activity, Figure 3A, Mean ([11]; 1 μM STA, pre-incubation 20 min): 3.8785 | log of percentage of control activity, Figure 3A, Mean ([11]; 1 μM STA, pre-incubation 30 min): 3.5554 | log of percentage of control activity, Figure 3A, Mean ([11]; 2 μM STA, pre-incubation 0 min): 4.6052 | log of percentage of control activity, Figure 3A, Mean ([11]; 2 μM STA, pre-incubation 5 min): 4.0322 | log of percentage of control activity, Figure 3A, Mean ([11]; 2 μM STA, pre-incubation 10 min): 3.5615 | log of percentage of control activity, Figure 3A, Mean ([11]; 2 μM STA, pre-incubation 20 min): 3.1694 | log of percentage of control activity, Figure 3A, Mean ([11]; 2 μM STA, pre-incubation 30 min): 3.0051 | kinact/KI ([11]; CYP3A4): 748.3 M⁻¹ s⁻¹ | KI ([11]; CYP3A4, testosterone-6β-hydroxylation): 2.45 µM | kinact ([11]; human, CYP3A5*3/*3 human liver microsomes, probe testosterone (200 μM), CYP3A4, testosterone-6β-hydroxylation): 0.00183 s⁻¹ | TDI profile on CYP3A5 (in words) [12]: not observed | logP [13]: 1.7 | microsomal CLint [14]: 24 µL/min/mg | KI (inactivation) ([15]; erythromycin N-demethylation, read-out: inhibitor concentration causing half-maximal inactivation (KI)): 0.399 µM | kinact/KI ([15]; erythromycin probe substrate): 3843 M⁻¹ s⁻¹ | Ki ([15]; reversible inhibition of CYP3A, the substrate is erythromycin, read-out: inhibitory constant (Ki)): 0.049 µM | fu plasma ([7]; ref supplement 2): 0.083 | Papp,caco-2 ([1]; ref supplement 3): 34.41 ×10⁻⁶ cm/s | Ki [16]: 0.15 µM | Dixon plot data point, Figure 2A, Mean [16, 24]: 17.0000 | Dixon plot data point, Figure 2A, Mean [16, 25]: 9.0441 | Dixon plot data point, Figure 2A, Mean [16, 26]: 7.1353 | Dixon plot data point, Figure 2A, Mean [16, 27]: 2.6233 | Dixon plot data point, Figure 2A, Mean ([16]; 0.25 μM STA, 0.2 μM tacrolimus): 21.0000 | Dixon plot data point, Figure 2A, Mean ([16]; 0.25 μM STA, 0.4 μM tacrolimus): 14.8861 | Dixon plot data point, Figure 2A, Mean ([16]; 0.25 μM STA, 0.8 μM tacrolimus): 8.3071 | Dixon plot data point, Figure 2A, Mean ([16]; 0.25 μM STA, 1.6 μM tacrolimus): 3.9072 | Dixon plot data point, Figure 2A, Mean ([16]; 0.5 μM STA, 0.2 μM tacrolimus): 35.0000 | Dixon plot data point, Figure 2A, Mean ([16]; 0.5 μM STA, 0.4 μM tacrolimus): 23.9051 | Dixon plot data point, Figure 2A, Mean ([16]; 0.5 μM STA, 0.8 μM tacrolimus): 13.9244 | Dixon plot data point, Figure 2A, Mean ([16]; 0.5 μM STA, 1.6 μM tacrolimus): 5.0160 | reversible inhibition on CYP3A4 (in words) ([16]; CYP3A5*3/*3 HLM, substrate tacrolimus): competitive reversible inhibition | Ki [17]: 0.11 µM | Dixon plot data point, Figure 2B, Mean [17, 24]: 15.0000 | Dixon plot data point, Figure 2B, Mean [17, 25]: 14.0109 | Dixon plot data point, Figure 2B, Mean [17, 26]: 7.5773 | Dixon plot data point, Figure 2B, Mean [17, 27]: 5.6992 | Dixon plot data point, Figure 2B, Mean ([17]; 0.25 μM STA, 0.2 μM tacrolimus): 23.2012 | Dixon plot data point, Figure 2B, Mean ([17]; 0.25 μM STA, 0.4 μM tacrolimus): 15.6487 | Dixon plot data point, Figure 2B, Mean ([17]; 0.25 μM STA, 0.8 μM tacrolimus): 12.0521 | Dixon plot data point, Figure 2B, Mean ([17]; 0.25 μM STA, 1.6 μM tacrolimus): 5.8700 | Dixon plot data point, Figure 2B, Mean ([17]; 0.5 μM STA, 0.2 μM tacrolimus): 30.8928 | Dixon plot data point, Figure 2B, Mean ([17]; 0.5 μM STA, 0.4 μM tacrolimus): 26.2841 | Dixon plot data point, Figure 2B, Mean ([17]; 0.5 μM STA, 0.8 μM tacrolimus): 14.9975 | Dixon plot data point, Figure 2B, Mean ([17]; 0.5 μM STA, 1.6 μM tacrolimus): 8.0120 | reversible inhibition on CYP3A5 (in words) ([17]; CYP3A5*1/*3 HLM with CYP3cide, substrate tacrolimus): competitive reversible inhibition
